We go through 1 compound from publication PMC12362244, “Fidelity, specialization, and evolution of Paramecium PolX DNA polymerases involved in programmed double-strand break DNA repair” (Nucleic Acids Research, 2025).

The target of test [1] is T1, HsPolλ (Homo sapiens, UniProt Q9UGP5).
T1 construct: gene POLL; wild type; cleavable N-terminal 14-His tag; E. coli
T1 sequence (Q9UGP5 1-575): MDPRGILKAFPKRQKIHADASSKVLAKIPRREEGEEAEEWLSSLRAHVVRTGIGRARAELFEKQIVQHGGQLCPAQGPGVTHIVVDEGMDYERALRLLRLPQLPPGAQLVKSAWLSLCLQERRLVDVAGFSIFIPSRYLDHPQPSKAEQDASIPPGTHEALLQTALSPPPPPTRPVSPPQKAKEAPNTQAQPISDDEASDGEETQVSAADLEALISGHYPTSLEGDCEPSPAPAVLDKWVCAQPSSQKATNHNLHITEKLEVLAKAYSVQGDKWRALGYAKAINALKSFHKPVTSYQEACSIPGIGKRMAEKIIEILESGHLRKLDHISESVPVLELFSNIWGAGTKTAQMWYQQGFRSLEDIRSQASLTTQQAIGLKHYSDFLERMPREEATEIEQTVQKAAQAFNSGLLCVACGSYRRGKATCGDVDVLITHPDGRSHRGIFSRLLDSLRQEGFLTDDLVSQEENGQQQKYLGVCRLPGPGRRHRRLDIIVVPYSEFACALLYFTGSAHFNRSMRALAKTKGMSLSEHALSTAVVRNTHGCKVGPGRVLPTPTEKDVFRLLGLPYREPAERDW
Briefly: gap-filling, FAM-primer urea-PAGE. The format is biochemical. The following applies: continuous template strand; 50 nM enzyme, 1 mM dGTP, 5 mM MgCl2, pH 7.5, 37°C.

The target of test [2] is T2, PolXcΔNter (Paramecium tetraurelia, UniProt A0DCU7).
T2 construct: gene GSPATT00015723001; lacks residues 1-266 (BRCT and linker); cleavable N-terminal 14-His tag; E. coli BL21 Star (DE3)
T2 sequence (A0DCU7 267-608): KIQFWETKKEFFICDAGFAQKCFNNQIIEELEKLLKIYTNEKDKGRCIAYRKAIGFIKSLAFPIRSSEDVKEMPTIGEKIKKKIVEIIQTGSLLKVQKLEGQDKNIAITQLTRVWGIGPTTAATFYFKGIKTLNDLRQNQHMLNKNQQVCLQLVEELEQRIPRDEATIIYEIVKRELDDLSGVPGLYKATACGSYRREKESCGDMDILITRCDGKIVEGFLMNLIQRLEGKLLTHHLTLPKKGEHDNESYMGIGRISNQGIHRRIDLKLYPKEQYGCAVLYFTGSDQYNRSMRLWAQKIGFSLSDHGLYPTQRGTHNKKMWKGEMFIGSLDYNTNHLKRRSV
Briefly: gap-filling, FAM-primer urea-PAGE. The format is biochemical. The note with it: gap with nick in template strand; 1 nM enzyme, 1 mM dGTP, 5 mM MgCl2, pH 7.5, 27°C.

For the compound `Nc1nc2c(ncn2[C@H]2C[C@H](O)[C@@H](COP(=O)(O)OP(=O)(O)OP(=O)(O)O)O2)c(=O)[nH]1` [dGTP], the “gap-filling, FAM-primer urea-PAGE” value is “display gap-filling activity similar to hPolλ when using a continuous template strand” in test [1]; “PolXaΔNter, PolXbΔNter, and PolXcΔNter displayed the highest apparent activity” in test [2].
